Laboratory results: patent US9572788B2, “Cell permeable inhibitors of anaphase promoting complex” (President and Fellows of Harvard College, priority 2014, dated 2017)
Where two headings read alike, the source gives them in different places.

Assays:
HeLa H2B-GFP cells = assay: Live cell imaging of mitotic duration and cell fate; assay type: cell-based, human; conditions: for Response of arrested cells to roscovitine: 100 μM roscovitine at 12 h after release; for Mitotic phenotype: synchronized HeLa H2B-GFP
Protocol: Detailed siRNA transfection and drug treatment schemes are described in supplemental experimental procedures. HeLa H2B-GFP cells were plated in DMEM with 10% FBS at 20% confluence. […] Live cell imaging was performed at 12 minute intervals on a Nikon TE2000E PFS inverted microscope fitted with an incubation chamber maintained at 37° C. and supplied with 5% CO2. Cell division was tracked by manual inspection of movies, and mitotic duration was measured as the time between the first frame of chromosome condensation and the frame of chromosome segregation (anaphase), decondensation (mitotic exit without anaphase) or cell death (chromosomes shrinking to a small bright dot).
The imaging plate was mounted onto a motorized stage (Prior ProScan II) on a Nikon TE2000E PFS inverted microscope fitted with an incubation chamber maintained at 37° C. and supplied with 5% CO2. A 20× Plan Apo 0.75 NA or 40× Plan Fluor 0.75 NA objective lens was used as indicated and images were collected with 2×2 binning. […] TIFF files of each image were exported from Elements and used to build stacks and Quicktime movies with Metamorph imaging software (Molecular Devices). For manual analysis, mitotic duration is counted as the time between the first frame of chromosome condensation and the frame of chromosome segregation (anaphase) or decondensation (mitotic exit in the presence of nocodazole) or cell death (chromosomes shrinking to a small bright dot).
HeLa H2B-GFP cells were plated in a 24-well plate in DMEM 10% FBS at 20% confluence one day prior to experiment and synchronized by double thymidine block as described above. […] Live cell imaging was set up as described above.
HeLa H2B-GFP cells were plated in a 24-well plate in DMEM+10% FBS at 20% confluence one day prior to the experiment and synchronized by double thymidine block as described above. The cells were released from the first thymidine block into 200 μl OptiMem without FBS. Transfection was performed immediately after the first thymidine release. […] The two mixtures were left at room temperature for 5 min before being mixed together and incubated for additional 20 min and then added to the cells to a final volume of 250 μl. 4 h after transfection, 250 μl of DMEM+20% FBS were added to cells.
HeLa H2B-GFP cells were plated in glass-bottom 24-well plates at 20% confluence one day prior to the experiment and synchronized by double thymidine block as described above. […] Cells were treated with 100 nM Hesperadin or DMSO 8 h after release from the second thymidine block and live cell imaging was set up as described above.
HeLa H2B-GFP cells were plated in a 24-well plate in DMEM+10% FBS at 20% confluence one day prior to experiment and synchronized by double thymidine block as synchronized above. […] Live cell imaging was set up as described above.
HeLa H2B-GFP cells were plated in a 24-well plate in DMEM+10% FBS at 20% confluence one day prior to experiment and synchronized by double thymidine block as described above. […] Untreated cells were used as the control. Live cell imaging was set up as described above. […] Alternatively, at 10 h after release from the second block, 10 μM MG132 with or without 25 μg/ml cycloheximide was added to the cells. […] Live cell imaging was set up as described above.
HeLa H2B-GFP cells were plated in a 24-well plate in DMEM+10% FBS at 20% confluence one day prior to experiment and synchronized by double thymidine block as described above. Mad2 siRNA transfection was performed as described above. At 10 h after release from the second block, 10 μM MG132 with or without 25 μg/ml cycloheximide was added to the cells. Live cell imaging was set up as described above. Manual analysis was focused only on cells that entered mitosis after MG132 addition.
Live cell imaging experiments. […] Nocodazole, taxol, proTAME, cyclinal and hesperadin were added to cells at 8 h after release. MG132 was added to cells at 10 h after release to allow mitotic entry.

HeLa cells = assay: Endogenous APC substrate levels by immunoblot in synchronized HeLa cells; assay type: cell-based, human; conditions: 12 μM
Protocol: FIG. 1E is a series of photographs of gel electrophoresis analysis showing that proTAME stabilizes endogenous APC substrates. HeLa cells were synchronized by double thymidine procedure and released into compounds (12 μM). Protein levels were measured by immunoblot.

[1] = Effect on mitosis in MCF10a cells; assay type: cell-based; conditions: similar doses
[2] = Example 3, Mad2 knockdown, 12 μM proTAME, 300 nM nocodazole
[3] = Example 3, without Mad2 knockdown, 12 μM proTAME, 300 nM nocodazole
[4] = Fig 6A, MAD2 siRNA, 12 μM proTAME, 300 nM nocodazole
[5] = Fig 6A, control siRNA, 12 μM proTAME, 300 nM nocodazole
[6] = Fig 6C, compounds 8 h after release, 12 μM proTAME, 300 nM nocodazole, 150 nM taxol, 100 nM hesperadin
[7] = Fig 8A, 12 μM proTAME, 300 nM nocodazole or 150 nM taxol, ± 25 μg/ml cycloheximide 4 h later
[8] = double-thymidine synchronized cells, Mad2 knockdown
[9] = double-thymidine synchronized cells, without Mad2 knockdown
[10] = Fig 5A, synchronized HeLa cells, 780 nM
[11] = Fig 5A, synchronized HeLa cells, 3 μM
[12] = Fig 5A, synchronized HeLa cells, 12 μM
[13] = Fig 5B, control siRNA, low proTAME concentration (4 μM)
[14] = Fig 5B, partial Cdc20 knockdown (Cdc20 siRNA), proTAME 4 μM
[15] = Fig S5G, after washout from nocodazole-induced arrest, release in proTAME 12 μM ± hesperadin 100 nM

## COC(=O)Nc1nc2ccc(C(=O)c3cccs3)cc2[nH]1 [Nocodazole, reference compound]
HeLa H2B-GFP cells; 10 nM nocodazole
  Prolongation of mitosis: 20 min
HeLa H2B-GFP cells; 10 nM, SAC-proficient cells
  Extension of mitotic duration: 20 min
HeLa H2B-GFP cells
  Response of arrested cells to roscovitine: induced instantaneous mitotic exit
HeLa H2B-GFP cells; [2]
  Median mitotic duration: 30 min
HeLa H2B-GFP cells; [3]
  Median mitotic duration: 1230 min
HeLa H2B-GFP cells; [4]
  Average mitotic duration: 98.2 min
  Median mitotic duration: 36 min
HeLa H2B-GFP cells; [5]
  Average mitotic duration: 1680.1 min
  Median mitotic duration: 1812 min
HeLa H2B-GFP cells; [6]
  Average mitotic duration: 1851.8 min
  Median mitotic duration: 2094 min
HeLa H2B-GFP cells; [7]
  Average mitotic duration: 1777.0 min
  Median mitotic duration: 2160 min
HeLa H2B-GFP cells; [8]
  Duration of mitotic arrest: 0.6 h
HeLa H2B-GFP cells; [9]
  Duration of mitotic arrest: 30 h

## COC(=O)[C@H](CCCN/C(=N\C(=O)OCOC(=O)Cc1ccccc1)NC(=O)OCOC(=O)Cc1ccccc1)NS(=O)(=O)c1ccc(C)cc1 [proTAME]
HeLa cells
  Stabilization of endogenous cyclin B and securin: dramatically stabilized
HeLa H2B-GFP cells
  Average mitotic duration: 1512.4 min
  Median mitotic duration: 1488 min
  Response of arrested cells to roscovitine: induces rapid mitotic exit
HeLa H2B-GFP cells; 3 μM
  Mitotic duration: 5 h
HeLa H2B-GFP cells; 12 μM proTAME
  Duration of mitotic arrest: over 28 h
HeLa H2B-GFP cells; 12 μM, SAC inactivated by Mad2 depletion
  Extension of mitotic duration: 72 min
HeLa H2B-GFP cells; 12 μM, intact SAC
  Extension of mitotic duration: 1380 min
HeLa H2B-GFP cells; Cdc20 levels reduced by 50% by siRNA, 4 μM
  Mitotic duration: 19.4 h
HeLa H2B-GFP cells; Example 2, 12 μM proTAME, DIC imaging
  Duration of mitotic arrest: over 10 hours
HeLa H2B-GFP cells; Example 2, 12 (μM) proTAME, fluorescence imaging
  Duration of metaphase arrest: more than 8 hours
HeLa H2B-GFP cells; Example 2, HeLa H2B-GFP fluorescence imaging, 3 μM proTAME, proAAME control
  Mitotic duration: 2 h
HeLa H2B-GFP cells; [2]
  Median mitotic duration: 120 min
HeLa H2B-GFP cells; [3]
  Median mitotic duration: 420 min
HeLa H2B-GFP cells; [10]
  Average mitotic duration: 165.4 min
  Median mitotic duration: 156 min
HeLa H2B-GFP cells; [11]
  Average mitotic duration: 444.6 min
  Median mitotic duration: 348 min
HeLa H2B-GFP cells; [12]
  Average mitotic duration: 1640.5 min
  Median mitotic duration: 1680 min
HeLa H2B-GFP cells; [13]
  Average mitotic duration: 496.5 min
  Median mitotic duration: 288 min
HeLa H2B-GFP cells; [14]
  Average mitotic duration: 1235.3 min
  Median mitotic duration: 1170 min
HeLa H2B-GFP cells; [4]
  Average mitotic duration: 121.7 min
  Median mitotic duration: 84 min
HeLa H2B-GFP cells; [6]
  Average mitotic duration: 1329.3 min
  Median mitotic duration: 1272 min
HeLa H2B-GFP cells; [7]
  Average mitotic duration: 1052.0 min
  Median mitotic duration: 972 min
HeLa H2B-GFP cells; [15]
  Average mitotic duration: 1516.4 min
  Median mitotic duration: 1410 min
HeLa H2B-GFP cells; Mad2-knockdown cells, proTAME 12 μM, cyclinal 100 μM
  Effect on mitotic exit: only transiently delayed mitotic exit
HeLa H2B-GFP cells; Mad2 knockdown cells (12 min without proTAME)
  Median mitotic duration: 84 min
HeLa H2B-GFP cells; control-transfected cells, 4 μM
  Mitotic duration: 4.8 h
HeLa H2B-GFP cells; [8]
  Duration of mitotic arrest: 1.4 h
HeLa H2B-GFP cells; [9]
  Duration of mitotic arrest: 24.6 h
HeLa H2B-GFP cells; in the absence of Mad2
  Duration of mitotic arrest: approximately 2 hours
HeLa H2B-GFP cells; in the presence of hesperadin
  Effect on mitotic exit: only transiently delayed mitotic exit
HeLa H2B-GFP cells; 780 nM or 3 μM
  Mitotic phenotype: remained in metaphase for up to several hours, but then proceeded through a normal anaphase
HeLa H2B-GFP cells; 12 μM
  Mitotic phenotype: arrested in metaphase and subsequently died
HeLa H2B-GFP cells; synchronized, drugs 10 hrs after release, proTAME 1 μM, MG132 0.5 μM
  Median mitotic arrest: 216 min
HeLa H2B-GFP cells; synchronized, drugs 10 hrs after release, proTAME 3 μM, low-dose MG132
  Median mitotic delay/arrest: 438 min
HeLa H2B-GFP cells; unsynchronized HeLa H2B-GFP, taxol 10 nM, proTAME 3 μM, control 60 min
  Median mitotic duration: 132 min
[1]
  Effect on mitotic duration: had no effect
